Where a name gives a salt, the structure may show the parent alone. Marks after values point to notes of the source that are not given here.
What was measured:
[1] = test system: MRL/LPR mice (autoimmune disease resembling systemic lupus erythematosus); assay: MRL/LPR mice model of lupus; format: in vivo; conditions: female MRL/LPR mice, oral BID for 11 weeks from 9 weeks of age; BIIB091 50 mg/kg, DRF 90 mg/kg
Description: MRL/MpJ-Fas^lppr/J (MRL-lpr) (hereinafter MRL/LPR mice) mice develop an autoimmune disease resembling systemic lupus erythematosus (SLE). These mice have a severe disease progression involving anti-DNA antibodies, fatal glomerulonephritis, vasculitis, skin lesions, lymphadenopathy and splenomegaly. The causative mutation in this strain of mice is a loss of function in the death receptor Fas and disease onset is accelerated in female mice as compared to males. For this reason, female mice were chosen for these experiments.
Female MRL/LPR mice were ordered from the Jackson laboratory and all experiments were conducted a Boulder Biopath.
Female mice were dosed orally beginning at 9 weeks of age with BIIB091 alone, DRF alone, BIIB091 and DRF in combination or the vehicle control twice daily (BID) for 11 weeks. BIIB091 was dosed at 50 mg/kg, while DRF was dosed at 90 mg/kg, respectively. Cyclophosphamide (CPA) was used as a positive control in the study and was administered through intraperitoneal injection (IP) once daily at 15 mg/kg. […]
The following serum cytokines and chemokines were assessed using Luminex assays: IL-1B, IL-2, IL-4, IL-5, IL-6, IL-10, IL-12, IL-13, IL-15, IL-17A, IL-17E, IL-17F, IL-21, IL-22, IL-23, IL-27, IL-28B, IL-31 and IL-33; sCD40L, GM-CSF, IFNγ, MIP-3α, TNFα and TNFβ. […]

[2] = test system: B cell-dependent experimental autoimmune encephalomyelitis (EAE); assay: Prophylactic B cell-dependent EAE, murine model of multiple sclerosis (hMOG1-125 immunization); format: in vivo, C57BL/6 mice; conditions: BIIB091 50 mpk and/or DRF 90 mpk p.o. BID; for End score +/- SD: EAE score scale 0 to 5, end of study Day 28; for MMS +/- SD (mean maximum score): EAE score scale 0 to 5; for MMS +/- SD (mean maximum score) / EAE incidence / Median day of onset (all mice): Day 0 to Day 27; for End % body weight +/- SD: end of study Day 28; for EAE incidence / Median day of onset (all mice): female C57BL/6 mice; for EAE incidence: 20 animals per group; for Median day of onset (all mice): study end Day 28
Description: The goal of the study is to compare efficacy of diroximel fumarate (Vumerity) alone, BIIB091 alone, and the combination diroximel fumarate and BIIB091 in B cell-dependent experimental autoimmune encephalomyelitis (EAE). B cells are required for experimental autoimmune encephalomyelitis (EAE) induced by immunization of female C57BL/6J mice with full length recombinant human myelin oligodendrocyte glycoprotein (MOG) hMOG1-125 in adjuvant (Oliver, A. R. et al. “Rat and human myelin oligodendrocyte glycoproteins induce experimental autoimmune encephalomyelitis by different mechanisms in C57BL/6 mice.” J Immunol (2003). 171(1): 462-468; Lyons, J. et al “B cells are critical to induction of experimental allergic encephalomyelitis by protein but not by a short encephalitogenic peptide”. Eur. J. Immunol. (1999), 29: 3432-3439). [table] Female mice at 9-13 weeks of age (age-matched within one week) were ordered from Taconic Biosciences and given standard water and chow ad libitum throughout the duration of the experiment. Mice were acclimated to the […] for at least 7 days prior to the start of the study. EAE was induced in all mice as follows: [table] Mice were injected subcutaneously at 2 sites in the back with the emulsion component (containing MOG1-125) of Hooke KitTM MOG1-125/CFA Emulsion PTX, catalog number EK-2160 (Hooke Laboratories, Lawrence MA). The first site of injection was in the upper back, approximately 1 cm caudal of the neck line. The second site was in the lower back, approximately 2 cm cranial of the base of the tail. The injection volume was 0.1 mL at each site. Within 2 hours of the injection of emulsion, and then again 24 hours after the injection of emulsion, the pertussis toxin component of the kit was administered intraperitoneally. Mice were assigned to groups in a balanced manner to achieve similar average weight across the groups at the start of the study (Day-1). Dosing volume of all treatments was 5 mL/kg. Both treatment compounds were formulated in the same vehicle: (0.5% HPMC E50 premium LV/0.2% Tween 20 pH 4 (50 mM Citrate Buffer) [table] Dosing of all mice started on Day 0 and continued through Day 27. Dosing for each treatment was at the same time (+/-1 hour) each dosing day. There were at least 30 and not more than 90 minutes between administration of Treatments 1 and 2. There were no less than 10 and no more than 14 hours between doses of the same article Readouts are EAE scores and body weight. Body weight were measured 3 times/week (Monday, Wednesday, Friday; weighing may be delayed 1 day if these fall on a major US holiday), starting on Day-1. Animals were scored daily starting from Day 7. All readouts continued until termination of the study. Scoring was performed blind, by a person unaware both of treatment and of previous scores for each mouse. EAE was scored on the scale of 0 to 5 according to scoring criteria in Table 3 below: [table] In-between scores were assigned when the clinical signs fall between two above defined scores. b. Statistical Analysis Hooke's standard statistical analysis for EAE studies was applied, according to Table 4 below. [table]

[3] = test system: BCR-mediated CD69 upregulation on CD19+ B cells; assay: CD69 assay in whole blood stimulated with anti-human IgD; format: cell-based; conditions: 30 minutes pre-incubation at 37° C., overnight anti-IgD stimulation
[4] = cited from earlier work

| SMILES | Efficacy in mice model of lupus [1] | End score +/- SD [2] | MMS +/- SD (mean maximum score) [2] | End % body weight +/- SD [2] | EAE incidence [2] [%^a] | Median day of onset (all mice) [2] | Inhibition of BCR-mediated CD69 upregulation ([3]; whole blood samples from MS patients not on treatment or treated with non-DMF DMTs) | Inhibition of BCR-mediated CD69 upregulation ([3]; whole blood samples from MS patients treated with DMF) | MMF exposure ([4]; DRF 462 mg dose taken orally versus DMF 240 mg dose taken orally) | GI tolerability ([4]; compared to DMF) |
| --- | --- | --- | --- | --- | --- | --- | --- | --- | --- | --- |
| Cn1cc(Nc2nccc(-c3ccc4c(c3)CN(C3COC3)CC[C@H]4NC(=O)c3cn(C(C)(C)C)nn3)n2)cn1 [BIIB091, (R)-1-(tert-butyl)-N-(8-(2-((1-methyl-1H-pyrazol-4-yl)amino)pyrimidin-4-yl)-2-(oxetan-3-yl)-2,3,4,5-tetrahydro-1H-benzo[c]azepin-5-yl)-1H-1,2,3-triazole-4-carboxamide] | efficacious | 0.60 +/− 0.88^a | 1.13 +/− 1.38^a | 102.8% +/− 8.3%^a | 45.0 | >28.0^a* day | inhibited | inhibited |  |  |
| COC(=O)/C=C/C(=O)OCCN1C(=O)CCC1=O [DRF, diroximel fumarate] | did not show efficacy | 1.00 +/− 1.19^a | 1.45 +/− 1.52^a | 98.2% +/− 8.3% | 50.0 | >28.0^a* day |  |  | comparable to that of the DMF 240 mg dose | improved GI tolerability compared to DMF |
